Measurements published in PubChem BioAssay (NCI).
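Compound exposure: 48 hours, 5 concentrations, 96-well plates. GI50 marks 50% less growth. Definition used: TGI = concentration required for complete inhibition of growth.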

How the values were obtained:
Assay in all cases: inhibition of tumour cell growth, NCI panel, 48 h
[1] = test system: 786-0 renal
[2] = test system: HT29 colon
[3] = test system: KM12 colon
[4] = test system: LOX IMVI melanoma
[5] = test system: NCI-H460 lung
[6] = test system: NCI/ADR-RES ovarian
[7] = test system: SF-539 CNS
[8] = test system: SK-MEL-28 melanoma
[9] = test system: SNB-19 CNS
[10] = test system: MALME-3M melanoma

| Compound | GI50 [1] | TGI [1] | GI50 [2] | TGI [2] | GI50 [3] | TGI [3] | GI50 [4] | TGI [4] | GI50 [5] | TGI [5] | GI50 [6] | TGI [6] | GI50 [7] | TGI [7] | GI50 [8] | TGI [8] | GI50 [9] | TGI [9] | TGI [10] |
| --- | --- | --- | --- | --- | --- | --- | --- | --- | --- | --- | --- | --- | --- | --- | --- | --- | --- | --- | --- |
| CCOC(=O)Nc1ccc2c3c(cccc13)-c1ccccc1-2 | 8 µM | > 100 µM | 3.67 µM | > 100 µM | 2.32 µM | > 100 µM | 4.77 µM | > 100 µM | 3.99 µM | > 100 µM | 4.32 µM | > 100 µM | 5.65 µM | > 100 µM | 10.7 µM | > 100 µM | 23.5 µM | > 100 µM | – |
| Cn1cnc([N+](=O)[O-])c1Sc1nccn1-c1ccccc1 | – | > 100 µM | – | > 100 µM | – | > 100 µM | – | 46.9 µM | – | > 100 µM | – | – | – | > 100 µM | – | > 100 µM | – | > 100 µM | 62.8 µM |
| CC(=O)NS(=O)(=O)c1ccc(-n2nc(-c3ccccc3)cc2-c2cc(O)ccc2O)cc1 | 57.5 µM | > 100 µM | > 100 µM | > 100 µM | > 100 µM | > 100 µM | > 100 µM | > 100 µM | > 100 µM | > 100 µM | > 100 µM | > 100 µM | – | – | > 100 µM | > 100 µM | > 100 µM | > 100 µM | – |
| CC1=CC=C2C(C)(C)CC[C@@H]3OC(=O)[C@H]1[C@]23C | – | > 100 µM | – | > 100 µM | – | > 100 µM | – | > 100 µM | – | – | – | – | – | > 100 µM | – | > 100 µM | – | > 100 µM | > 100 µM |
| COC1OC(CO)C(O)C(NC(=O)N(C)N=O)C1O (configuration not stated) | – | > 100 µM | – | > 100 µM | – | > 100 µM | – | – | – | > 100 µM | – | – | – | > 100 µM | – | > 100 µM | – | > 100 µM | > 100 µM |
| O=C1C2=C(c3ccccc31)C(c1ccccc1Cl)NC(=S)N2 (configuration not stated) | – | > 100 µM | – | > 100 µM | – | > 100 µM | – | – | – | > 100 µM | – | – | – | > 100 µM | – | > 100 µM | – | > 100 µM | > 100 µM |
| Cc1cn2c(/C=N/NC3=NCCN3)c(-c3ccc(Cl)c([N+](=O)[O-])c3)nc2s1 | 0.908 µM | 2.5 µM | – | – | 0.872 µM | 1.9 µM | 0.871 µM | 1.6 µM | 2.34 µM | > 50 µM | 7.75 µM | 21.5 µM | 0.962 µM | 1.85 µM | – | – | 1.48 µM | > 50 µM | – |
| C=CCC1=C2CCCCC2CCC1=O (configuration not stated) | – | > 100 µM | – | – | – | > 100 µM | – | > 100 µM | – | > 100 µM | – | – | – | > 100 µM | – | > 100 µM | – | > 100 µM | > 100 µM |
| CC(=O)OC1C(COC(N)=O)OC(n2c(-c3ccc(C)cc3)cc(-c3ccccc3)c(C#N)c2=O)C(OC(C)=O)C1OC(C)=O (configuration not stated) | – | > 100 µM | – | > 100 µM | – | > 100 µM | – | > 100 µM | – | > 100 µM | – | – | – | > 100 µM | – | > 100 µM | – | > 100 µM | > 100 µM |
| CCCCN(CCCC)C(=O)C(=O)C(C(=O)C(=O)OC)c1nc2ccccc2o1 (configuration not stated) | – | > 100 µM | – | > 100 µM | – | > 100 µM | – | > 100 µM | – | > 100 µM | – | – | – | > 100 µM | – | > 100 µM | – | > 100 µM | > 100 µM |
